For one test, the target named is T1, JAK2 tyrosine kinase (Homo sapiens, UniProt O60674).
T1 construct: purchased Carnabioscience Co
Description: Test 1: inhibitory activity to JAK2 tyrosine kinase (ELISA). The format is biochemical. To be noted: 25 μM ATP in substrate solution, 30° C. for 1 hour, n=2. The essentials:
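This is an ELISA read at A450 (HRP anti-phosphotyrosine antibody, TMB) of biotin-peptide phosphorylation captured on streptavidin. Enzyme solution was 0.75 nM JAK2, and the substrate solution was 625 nM peptide with 25 μM ATP in Tris pH 7.5 buffer. The reaction ran 1 h at 30 °C with compounds in duplicate, and IC50 was fitted non-linearly.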
For orientation: ELISA stands for enzyme-linked immunosorbent assay.

The next test concerns the target T2, JAK3 tyrosine kinase (Homo sapiens, UniProt P52333).
T2 construct: purchased Carnabioscience Co
T2 sequence (P52333 1-1124): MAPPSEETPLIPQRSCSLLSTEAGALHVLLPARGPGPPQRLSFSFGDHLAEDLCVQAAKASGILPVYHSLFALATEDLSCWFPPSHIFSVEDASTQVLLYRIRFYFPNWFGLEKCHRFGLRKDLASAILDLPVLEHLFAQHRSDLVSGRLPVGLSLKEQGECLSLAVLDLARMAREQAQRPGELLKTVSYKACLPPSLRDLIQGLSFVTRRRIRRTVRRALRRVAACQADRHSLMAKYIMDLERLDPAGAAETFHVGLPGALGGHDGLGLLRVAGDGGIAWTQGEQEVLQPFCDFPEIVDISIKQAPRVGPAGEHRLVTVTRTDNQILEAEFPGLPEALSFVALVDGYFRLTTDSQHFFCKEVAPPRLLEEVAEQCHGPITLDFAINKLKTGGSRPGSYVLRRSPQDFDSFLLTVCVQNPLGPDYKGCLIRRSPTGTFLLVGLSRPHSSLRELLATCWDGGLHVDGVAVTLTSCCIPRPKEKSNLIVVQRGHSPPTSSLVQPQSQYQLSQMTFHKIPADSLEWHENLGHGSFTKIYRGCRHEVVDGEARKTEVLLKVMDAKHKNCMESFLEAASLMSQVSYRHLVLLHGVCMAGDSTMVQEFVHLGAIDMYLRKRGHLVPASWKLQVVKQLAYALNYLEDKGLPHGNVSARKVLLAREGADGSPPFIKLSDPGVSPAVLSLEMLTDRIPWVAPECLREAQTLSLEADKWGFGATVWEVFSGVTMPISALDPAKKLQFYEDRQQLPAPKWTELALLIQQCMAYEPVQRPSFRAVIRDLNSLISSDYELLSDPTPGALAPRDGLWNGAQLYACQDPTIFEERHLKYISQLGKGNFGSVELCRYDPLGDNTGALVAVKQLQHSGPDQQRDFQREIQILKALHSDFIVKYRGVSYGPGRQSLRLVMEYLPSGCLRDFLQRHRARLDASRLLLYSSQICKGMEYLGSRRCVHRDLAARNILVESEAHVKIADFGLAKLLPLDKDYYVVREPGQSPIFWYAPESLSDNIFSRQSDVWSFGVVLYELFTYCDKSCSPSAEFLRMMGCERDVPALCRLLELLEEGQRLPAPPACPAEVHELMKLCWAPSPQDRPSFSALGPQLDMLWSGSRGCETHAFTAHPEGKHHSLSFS
Briefly: Test 1: inhibitory activity to JAK3 tyrosine kinase (ELISA). Format: biochemical. To be noted: 25 μM ATP in substrate solution, 30° C. for 1 hour, n=2. The method, boiled down: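 ELISA of JAK3 kinase activity with absorbance read at 450 nm. Compounds were tested from DMSO dilution series at 100-fold the measurement concentrations (1000–0.01 μM), diluted up to 20 times in assay buffer, against a DMSO negative control. IC50 was estimated by non-linear regression of absorbance.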

Structures can show the parent of a compound that is named as a salt.

A word on the IC50: it is the concentration that inhibits the measured activity by half. Low values mean greater potency in that assay, high ones weaker potency in that assay.

T1 sequence (O60674 whole entry): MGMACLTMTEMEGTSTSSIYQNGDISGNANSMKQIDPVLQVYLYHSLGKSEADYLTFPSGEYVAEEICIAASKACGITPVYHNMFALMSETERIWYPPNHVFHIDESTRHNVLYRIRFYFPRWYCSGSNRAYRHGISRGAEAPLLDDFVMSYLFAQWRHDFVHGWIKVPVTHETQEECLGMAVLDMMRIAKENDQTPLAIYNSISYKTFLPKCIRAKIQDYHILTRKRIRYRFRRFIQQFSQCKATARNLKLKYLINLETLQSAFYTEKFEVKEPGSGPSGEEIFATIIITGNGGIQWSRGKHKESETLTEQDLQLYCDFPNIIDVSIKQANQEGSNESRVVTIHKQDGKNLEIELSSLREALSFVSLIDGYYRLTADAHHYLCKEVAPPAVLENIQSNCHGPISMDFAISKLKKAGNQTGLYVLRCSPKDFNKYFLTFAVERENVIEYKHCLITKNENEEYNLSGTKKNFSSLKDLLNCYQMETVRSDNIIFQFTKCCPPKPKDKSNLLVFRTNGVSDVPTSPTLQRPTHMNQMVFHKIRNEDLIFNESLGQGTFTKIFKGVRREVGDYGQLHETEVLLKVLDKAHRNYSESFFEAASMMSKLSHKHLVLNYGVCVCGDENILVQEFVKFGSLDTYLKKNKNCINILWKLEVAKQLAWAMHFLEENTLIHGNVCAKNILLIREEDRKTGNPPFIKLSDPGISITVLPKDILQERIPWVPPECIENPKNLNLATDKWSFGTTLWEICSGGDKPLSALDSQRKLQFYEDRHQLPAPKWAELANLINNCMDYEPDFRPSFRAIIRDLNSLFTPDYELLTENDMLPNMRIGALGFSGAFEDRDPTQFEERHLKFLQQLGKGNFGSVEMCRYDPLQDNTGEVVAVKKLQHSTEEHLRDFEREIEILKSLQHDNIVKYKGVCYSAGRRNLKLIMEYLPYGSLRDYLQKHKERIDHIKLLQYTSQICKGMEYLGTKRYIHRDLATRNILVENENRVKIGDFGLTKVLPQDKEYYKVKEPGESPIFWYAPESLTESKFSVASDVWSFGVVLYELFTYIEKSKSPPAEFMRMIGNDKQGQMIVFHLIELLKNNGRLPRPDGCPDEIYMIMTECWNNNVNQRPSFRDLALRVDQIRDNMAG

Regarding `C[C@H](Nc1nc(Nc2cnccn2)cc(N2CC(CN)C2)n1)c1ccc(F)cc1` [Example 230, (S)-6-[3-(Aminomethyl)azetidin-1-yl]-N^2-[1-(4-fluorophenyl)ethyl]-N^4-(pyrazin-2-yl)pyrimidine-2,4-diamine], the IC50 turned out to be 1.2 nM against JAK2 tyrosine kinase and 63 nM against JAK3 tyrosine kinase.
The corresponding values for `C[C@H](Nc1nc(Nc2cnccn2)cc(-c2cccc(S(C)(=O)=O)c2)n1)c1ccc(F)cc1` [Example 35, (S)—N^2-[1-(4-Fluorophenyl)ethyl]-6-[3-(methylsulfonyl)phenyl]-N^4-(pyrazin-2-yl) yrimidine-2,4-diamine hydrochloride] are 2.5 nM and 440 nM.
Taken in the same sequence, the figures for `C[C@H](Nc1nc(Nc2cnccn2)ccc1C(=O)NCC1CC1)c1ccc(F)cc1` [Example 189, (S)—N-(Cyclopropylmethyl)-2-[1-(4-fluorophenyl)ethylamino]-6-(pyrazin-2-ylamino)nicotinamide] were 12 nM and 1500 nM.
`C[C@H](Nc1cc(-c2ccc(F)cc2)cc(Nc2cnccn2)n1)c1ccc(F)cc1` [Example 120, (S)-4-(4-Fluorophenyl)-N^2-[1-(4-fluorophenyl)ethyl]-N^6-(pyrazin-2-yl)pyridine-2,6-diamine hydrochloride]: the results for the IC50 against JAK2 tyrosine kinase and against JAK3 tyrosine kinase were 23 nM and 1700 nM, respectively.
Taken in the same sequence, the figures for `C[C@H](Nc1nc(NCc2ccccn2)cc(Nc2cnccn2)n1)c1ccc(F)cc1` [Example 106, (S)—N^2-[1-(4-Fluorophenyl)ethyl]-N^4-(pyrazin-2-yl)-N^6-(pyridin-2-ylmethyl)pyrimidine-2,4,6-triamine] were 1.9 nM and 110 nM.
The corresponding values for `C[C@H](Nc1nc(NCCN(C)C)cc(Nc2cnccn2)n1)c1ccc(F)cc1` [Example 62, (S)—N^4-[2-(Dimethylamino)ethyl]-N^2-[1-(4-fluorophenyl)ethyl]-N^6-(pyrazin-2-yl)pyrimidine-2,4,6-triamine dihydrochloride] are 2.2 nM and 65 nM.
With `C[C@H](Nc1nc(Nc2cnccn2)cc(N2CC(F)C2)n1)c1ccc(F)cc1` [Example 44, (S)-6-(3-Fluoroazetidin-1-yl)-N^2-[1-(4-fluorophenyl)ethyl]-N^4-(pyrazin-2-yl)pyrimidine-2,4-diamine], the IC50 at JAK2 tyrosine kinase was found to be 2.1 nM; against JAK3 tyrosine kinase it was 140 nM.
Turning to `C[C@H](Nc1cc(N2CCSCC2)cc(Nc2cnccn2)n1)c1ccc(F)cc1` [Example 40, (S)—N^2-[1-(4-Fluorophenyl)ethyl]-N^6-(pyrazin-2-yl)-4-thiomorpholinopyridine-2,6-diamine], the IC50 against JAK2 tyrosine kinase was 3.4 nM; against JAK3 tyrosine kinase, 310 nM.
The corresponding values for `C[C@H](Nc1nc(Nc2cnccn2)cc(N2CC(O)C2)n1)c1ccc(F)cc1` [Example 72, (S)-1-{2-[1-(4-Fluorophenyl)ethylamino]-6-(pyrazin-2-ylamino)pyrimidin-4-yl}azetidin-3-ol hydrochloride] are 0.96 nM and 31 nM.
The corresponding values for `CC(=O)N[C@H]1CCN(c2cc(Nc3cnccn3)nc(N[C@@H](C)c3ccc(F)cc3)n2)C1` [Example 33, N-{(S)-1-[2-{[(S)-1-(4-Fluorophenyl)ethyl]amino}-6-(pyrazin-2-ylamino)pyrimidin-4-yl]pyrrolidin-3-yl}acetamide maleate] are 0.4 nM and 30 nM.
Taken in the same sequence, the figures for `C[C@H](Nc1nc(Nc2cnccn2)cc(N2CC(C(=O)NC3CC3)C2)n1)c1ccc(F)cc1` [Example 197, (S)—N-(Cyclopropyl)-1-{2-[1-(4-fluorophenyl)ethylamino]-6-(pyrazin-2-ylamino)pyrimidin-4-yl}azetidine-3-carboxamide] were 1.6 nM and 58 nM.
Turning to `C[C@H](Nc1cc(-c2cnn(C3CC3)c2)cc(Nc2cnccn2)n1)c1ccc(F)cc1` [Example 218, (S)-4-(1-Cyclopropyl-1H-pyrazol-4-yl)-N^2-[1-(4-fluorophenyl)ethyl]-N^6-(pyrazin-2-yl)pyridine-2,6-diamine], the IC50 on JAK2 tyrosine kinase was 2.2 nM; on JAK3 tyrosine kinase it was 85 nM.
The corresponding values for `C[C@H](Nc1cc(N2CC(F)(F)C2)cc(Nc2cnccn2)n1)c1ccc(F)cc1` [Example 207, (S)-4-(3,3-Difluoroazetidin-1-yl)-N^2-[1-(4-fluorophenyl)ethyl]-N^6-(pyrazin-2-yl)pyridine-2,6-diamine hydrochloride] are 7 nM and 300 nM.
The corresponding values for `C[C@H](Nc1nc(Nc2cnccn2)cc(N(CCO)CCO)n1)c1ccc(F)cc1` [Example 61, (S)-2-({2-[1-(4-Fluorophenyl)ethylamino]-6-(pyrazin-2-ylamino)pyrimidin-4-yl}(2-hydroxyethyl)amino)ethan-1-ol hydrochloride] are 6 nM and 150 nM.
The corresponding values for `C[C@H](Nc1nc(Nc2cnccn2)cc(-c2ccc(C#N)nc2)n1)c1ccc(F)cc1` [Example 55, (S)-5-{2-[1-(4-Fluorophenyl)ethylamino]-6-(pyrazin-2-ylamino)pyrimidin-4-yl}picolinonitrile] are 2 nM and 190 nM.
Take `C[C@H](Nc1cc(-c2ccc(S(C)(=O)=O)cc2)cc(Nc2cnccn2)n1)c1ccc(F)cc1` [Example 36, (S)—N^2-[1-(4-Fluorophenyl)ethyl]-4-[4-(methylsulfonyl)phenyl]-N^6-(pyrazin-2-yl)pyridine-2,6-diamine hydrochloride]: the IC50 on JAK2 tyrosine kinase came out at 2.8 nM; against JAK3 tyrosine kinase, 200 nM.
On to `C[C@H](Nc1nc(Nc2cnccn2)cc(N2CC(CNC(=O)OC(C)(C)C)C2)n1)c1ccc(F)cc1` [Example 229, t-Butyl (S)-(1-{2-[1-(4-fluorophenyl)ethylamino]-6-(pyrazin-2-ylamino)pyrimidin-4-yl}azetidin-3-yl)methyl carbamate], for which the IC50 against JAK2 tyrosine kinase came out at 3.9 nM; against JAK3 tyrosine kinase, 180 nM.
Turning to `C[C@H](Nc1cc(C(=O)NC2CCC2)cc(Nc2cnccn2)n1)c1ccc(F)cc1` [Example 168, (S)—N-Cyclobutyl-2-[1-(4-fluorophenyl)ethylamino]-6-(pyrazin-2-ylamino)isonicotinamide], the half-maximal inhibitory concentration (IC50) at JAK2 tyrosine kinase stood at 17 nM; against JAK3 tyrosine kinase, 1300 nM.
The corresponding values for `C[C@H](Nc1nc(Nc2cnccn2)cc(-c2ccc(C(N)=O)cc2)n1)c1ccc(F)cc1` [Example 80, (S)-4-{2-[1-(4-Fluorophenyl)ethylamino]-6-(pyrazin-2-ylamino)pyrimidin-4-yl}benzamide hydrochloride] are 1.1 nM and 60 nM.
The corresponding values for `C[C@H](Nc1cc(-c2cccnc2)cc(Nc2cnccn2)n1)c1ccc(F)cc1` [Example 5, (S)—N^2′-[1-(4-Fluorophenyl)ethyl]-N^6′-(pyrazin-2-yl)-3,4′-bipyridine-2′,6′-diamine hydrochloride] are 0.62 nM and 62 nM.
Taken in the same sequence, the figures for `C[C@H](Nc1cc(-c2cc[nH]c2)cc(Nc2cnccn2)n1)c1ccc(F)cc1` [Example 116, (S)—N^2-[1-(4-Fluorophenyl)ethyl]-N^6-(pyrazin-2-yl)-4-(1H-pyrrol-3-yl)pyridine-2,6-diamine dihydrochloride] were 5.3 nM and 340 nM.
For the molecule `C[C@H](Nc1nc(Nc2cnccn2)cc(-c2ccc(S(C)(=O)=O)cc2)n1)c1ccc(F)cc1` [Example 10, (S)—N^2-[1-(4-Fluorophenyl)ethyl]-6-[4-(methylsulfonyl)phenyl]-N^4-(pyrazin-2-yl)pyrimidine-2,4-diamine hydrochloride], the IC50 was 0.89 nM on JAK2 tyrosine kinase and 95 nM against JAK3 tyrosine kinase.
The corresponding values for `C[C@H](Nc1cc(N2CCN(S(C)(=O)=O)CC2)cc(Nc2cnccn2)n1)c1ccc(F)cc1` [Example 124, (S)—N^2-[1-(4-Fluorophenyl)ethyl]-4-[4-(methylsulfonyl)piperazin-1-yl]-N^6-(pyrazin-2-yl)pyridine-2,6-diamine hydrochloride] are 1.3 nM and 66 nM.

The values are drawn from patent US8586591B2, “Aminopyrazine derivative and medicine” (Nippon Shinyaku Co., Ltd., priority 2009, dated 2013).
